Where two headings read alike, the source gives them in different places. Positions of bridges follow the written chain, without caps; N, C: chain ends. Non-standard residues stand in square brackets, D forms with d. Residues, ends and D or L forms follow the SMILES beside them. Sar = CNCC(=O)O
Test system: classical complement pathway
Assay: In vitro haemolysis assay (inhibition of classical complement pathway)
Format: cell-based, human
Protocol: Method The in vitro effect of test compounds was assessed by measuring their inhibitory effect of the classical complement pathway in a haemolysis assay. Briefly, test compounds and reference compounds were dissolved in DMSO and diluted in Tris/Casein Assay Buffer (10 mM Tris, 145 mM NaCl, 0.5 mM MgCl2, 0.15 mM CaCl2, and 0.1% W/V Casein, adjusted to pH 7.4) as 9-point serial dilutions in a 96 well plate. Sensitized sheep red blood cells (RBC) coated with rabbit anti-sheep erythrocyte antiserum (Complement Technology, Inc., TX, USA) were washed in Tris/Casein Assay Buffer. 50 μL from each well of diluted compound was added to a 96-well plate containing 50 μL diluted human serum (Complement Technology, Inc., TX, USA) and incubated for 15 minutes at room temperature. The serum dilution factor was optimized for every serum batch to obtain 70-90% of maximal haemolysis using the protocol. Then 50 μL sensitized sheep red blood cells were added to all wells ([…] per well). After 30 minutes of incubation at 37° C. with gentle agitation, the reaction was stopped by addition of 50 μL Tris STOP Buffer per well (10 mM EDTA, 10 mM Tris, 145 mM NaCl adjusted to pH 7.4). The RBCs were then removed by centrifugation and the resulting supernatant measured for hemolysis by absorbance at 405 nm. The response was normalized relative to a positive and negative control (vehicle) to calculate the IC50 from the concentration response curve using the 4-parameter logistic (4PL) nonlinear model for curve fitting.

[1] = Table 3, human serum, sensitized sheep red blood cells, read-out: IC50[nM], in vitro analysis of inhibition of hemolysis
[2] = Table 4, valine 3 versus isoleucine 3 pairs, read-out: CP hemolysis IC50

Row | SMILES | IC50 [1] [nM] | IC50 [2] [nM]
1 | CC[C@H](C)[C@H](NC(C)=O)C(=O)N[C@H]1CSSC[C@@H](C(=O)N[C@H](C(=O)NCC(=O)N[C@@H](C)C(=O)N[C@@H](CCC(=O)O)C(=O)N[C@@H](CO)C(N)=O)[C@@H](C)O)NC(=O)[C@H](CCCNC(=N)N)NC(=O)[C@H](Cc2c[nH]cn2)NC(=O)[C@H](C)NC(=O)CNC(=O)[C@H](Cc2c[nH]c3ccccc23)NC(=O)[C@H](CCCCN)NC(=O)[C@H](CCC(N)=O)NC(=O)[C@H](Cc2c[nH]c3ccccc23)NC(=O)[C@H]([C@@H](C)CC)NC1=O [Compound 8] (Ac-ICIWQKWGAHRCTGAES-NH2; disulfide 2-12) | < 500 | 
2 | CC[C@H](C)[C@@H]1NC(=O)[C@@H](NC(=O)[C@H](Cc2ccc(O)cc2)NC(C)=O)CSSC[C@@H](C(=O)N[C@H](C(N)=O)[C@@H](C)O)NC(=O)[C@H](CCCNC(=N)N)NC(=O)[C@H](Cc2c[nH]cn2)NC(=O)[C@H](CCC(=O)O)NC(=O)CNC(=O)[C@H](Cc2c[nH]c3ccccc23)NC(=O)[C@H](CC(=O)O)NC(=O)[C@H](CCC(N)=O)NC(=O)[C@H](Cc2c[nH]c3ccccc23)NC1=O [Compound 9] (Ac-YCIWQDWGEHRCT-NH2; disulfide 2-12) | < 100 | 
3 | CC[C@H](C)[C@@H]1NC(=O)[C@@H](NC(=O)[C@H](Cc2ccc(O)cc2)NC(=O)[C@H](C)NC(=O)[C@H](CO)NC(=O)[C@H](CO)NC(=O)[C@H](CCC(=O)O)NC(C)=O)CSSC[C@@H](C(=O)N[C@H](C(N)=O)[C@@H](C)O)NC(=O)[C@H](CCCNC(=N)N)NC(=O)[C@H](Cc2c[nH]cn2)NC(=O)[C@H](CCC(=O)O)NC(=O)CNC(=O)[C@H](Cc2c[nH]c3ccccc23)NC(=O)[C@H](CC(=O)O)NC(=O)[C@H](CCC(N)=O)NC(=O)[C@H](Cc2c[nH]c3ccccc23)NC1=O [Compound 10] (Ac-ESSAYCIWQDWGEHRCT-NH2; disulfide 6-16) | < 100 | 
4 | CC[C@H](C)[C@@H]1NC(=O)[C@@H](NC(=O)CN(C)C(C)=O)CSSC[C@@H](C(=O)N[C@H](C(N)=O)[C@@H](C)O)NC(=O)[C@H](CCCNC(=N)N)NC(=O)[C@H](Cc2c[nH]cn2)NC(=O)[C@H](CCC(=O)O)NC(=O)CNC(=O)[C@H](Cc2c[nH]c3ccccc23)NC(=O)[C@H](CC(=O)O)NC(=O)[C@H](CCC(N)=O)NC(=O)[C@H](Cc2c[nH]c3ccccc23)NC1=O [Compound 11] (Ac-[Sar]CIWQDWGEHRCT-NH2; disulfide 2-12) | < 100 | 
5 | CC[C@H](C)[C@H](NC(C)=O)C(=O)N[C@H]1CSSC[C@@H](C(=O)N[C@@H](CCC(=O)O)C(N)=O)NC(=O)[C@H](CCCNC(=N)N)NC(=O)[C@H](Cc2c[nH]cn2)NC(=O)[C@H](C)NC(=O)CNC(=O)[C@H](Cc2c[nH]c3ccccc23)NC(=O)[C@H](CC(=O)O)NC(=O)[C@H](CCC(N)=O)NC(=O)[C@H](Cc2c[nH]c3ccccc23)NC(=O)[C@H]([C@@H](C)CC)NC1=O [Compound 12] (Ac-ICIWQDWGAHRCE-NH2; disulfide 2-12) | < 100 | 
6 | CC[C@H](C)[C@H](NC(C)=O)C(=O)N[C@H]1CSSC[C@@H](C(=O)N(C)CC(N)=O)NC(=O)[C@H](CCCNC(=N)N)NC(=O)[C@H](Cc2c[nH]cn2)NC(=O)[C@H](CCC(=O)O)NC(=O)CNC(=O)[C@H](Cc2c[nH]c3ccccc23)NC(=O)[C@H](CC(=O)O)NC(=O)[C@H](CCC(N)=O)NC(=O)[C@H](Cc2c[nH]c3ccccc23)NC(=O)[C@H]([C@@H](C)CC)NC1=O [Compound 13] (Ac-ICIWQDWGEHRC[Sar]-NH2; disulfide 2-12) | < 100 | 
7 | CC[C@H](C)[C@H](NC(C)=O)C(=O)N[C@H]1CSSC[C@@H](C(=O)N[C@H](C(N)=O)[C@@H](C)O)NC(=O)[C@H](CCCNC(=N)N)NC(=O)[C@H](Cc2c[nH]cn2)NC(=O)[C@H](CCC(=O)O)NC(=O)CNC(=O)[C@H](Cc2c[nH]c3ccccc23)NC(=O)[C@H](CCC(=O)O)NC(=O)[C@H](CCC(N)=O)NC(=O)[C@H](Cc2c[nH]c3ccccc23)NC(=O)[C@H]([C@@H](C)CC)NC1=O [Compound 16] (Ac-ICIWQEWGEHRCT-NH2; disulfide 2-12) | < 100 | 
8 | CC[C@H](C)[C@H](NC(C)=O)C(=O)N[C@H]1CSSC[C@@H](C(=O)N[C@H](C(N)=O)[C@@H](C)O)NC(=O)[C@H](CCCNC(=N)N)NC(=O)[C@H](Cc2c[nH]cn2)NC(=O)[C@H](CC(=O)O)NC(=O)CNC(=O)[C@H](Cc2c[nH]c3ccccc23)NC(=O)[C@H](CC(=O)O)NC(=O)[C@H](CCC(N)=O)NC(=O)[C@H](Cc2c[nH]c3ccccc23)NC(=O)[C@H]([C@@H](C)CC)NC1=O [Compound 17] (Ac-ICIWQDWGDHRCT-NH2; disulfide 2-12) | < 100 | 
9 | CC[C@H](C)[C@H](NC(C)=O)C(=O)N[C@H]1CSSC[C@@H](C(=O)N[C@H](C(N)=O)[C@@H](C)O)NC(=O)[C@H](CCCNC(=N)N)NC(=O)[C@H](Cc2c[nH]cn2)NC(=O)[C@H](CCCNC(=N)N)NC(=O)CNC(=O)[C@H](Cc2c[nH]c3ccccc23)NC(=O)[C@H](CC(=O)O)NC(=O)[C@H](CCC(N)=O)NC(=O)[C@H](Cc2c[nH]c3ccccc23)NC(=O)[C@H]([C@@H](C)CC)NC1=O [Compound 18] (Ac-ICIWQDWGRHRCT-NH2; disulfide 2-12) | < 100 | 
10 | CC[C@H](C)[C@H](NC(C)=O)C(=O)N[C@H]1CSSC[C@@H](C(=O)N[C@H](C(N)=O)[C@@H](C)O)NC(=O)[C@H](CO)NC(=O)[C@H](Cc2c[nH]cn2)NC(=O)[C@H](C)NC(=O)CNC(=O)[C@H](Cc2c[nH]c3ccccc23)NC(=O)[C@H](CC(=O)O)NC(=O)[C@H](CCC(N)=O)NC(=O)[C@H](Cc2c[nH]c3ccccc23)NC(=O)[C@H]([C@@H](C)CC)NC1=O [Compound 19] (Ac-ICIWQDWGAHSCT-NH2; disulfide 2-12) | < 250 | 140
11 | CC[C@H](C)[C@H](NC(C)=O)C(=O)N[C@H]1CSSC[C@@H](C(=O)N[C@H](C(N)=O)[C@@H](C)O)NC(=O)[C@H](CO)NC(=O)[C@H](Cc2c[nH]cn2)NC(=O)[C@H](CCC(=O)O)NC(=O)CNC(=O)[C@H](Cc2c[nH]c3ccccc23)NC(=O)[C@H](CC(=O)O)NC(=O)[C@H](CCC(N)=O)NC(=O)[C@H](Cc2c[nH]c3ccccc23)NC(=O)[C@H]([C@@H](C)CC)NC1=O [Compound 20] (Ac-ICIWQDWGEHSCT-NH2; disulfide 2-12) | < 100 | 59
12 | CC[C@H](C)[C@@H]1NC(=O)[C@@H](NC(=O)[C@H](Cc2ccccc2)NC(C)=O)CSSC[C@@H](C(=O)N[C@H](C(N)=O)[C@@H](C)O)NC(=O)[C@H](CCCNC(=N)N)NC(=O)[C@H](Cc2c[nH]cn2)NC(=O)[C@H](CCC(=O)O)NC(=O)CNC(=O)[C@H](Cc2c[nH]c3ccccc23)NC(=O)[C@H](CC(=O)O)NC(=O)[C@H](CCC(N)=O)NC(=O)[C@H](Cc2c[nH]c3ccccc23)NC1=O [Compound 23] (Ac-FCIWQDWGEHRCT-NH2; disulfide 2-12) | < 100 | 
13 | CC[C@H](C)[C@H](NC(C)=O)C(=O)N[C@H]1CSSC[C@@H](C(=O)N[C@H](C(=O)N[C@@H](CCC(=O)O)C(N)=O)[C@@H](C)O)NC(=O)[C@H](CCCNC(=N)N)NC(=O)[C@H](Cc2c[nH]cn2)NC(=O)[C@H](CCC(=O)O)NC(=O)CNC(=O)[C@H](Cc2c[nH]c3ccccc23)NC(=O)[C@H](CC(=O)O)NC(=O)[C@H](CCC(N)=O)NC(=O)[C@H](Cc2c[nH]c3ccccc23)NC(=O)[C@H]([C@@H](C)CC)NC1=O [Compound 26] (Ac-ICIWQDWGEHRCTE-NH2; disulfide 2-12) | < 100 | 
